From PMC3953198 (Journal of medicinal chemistry, 2013) come the findings set out here.

Structures are written as SMILES.

One data set concerns the target EphA2 receptor (Mus musculus, UniProt Q03145). The data set is classed as binding. As to conditions: for activity in the binding assay (in words): EphA2-ephrin-A1 ELISA.
In the next data set the test system is PC3 cells. Briefly: LDH assay. The data set is classed as cell-based, human. The conditions noted are these: 2 h, at the tested concentrations.

Chain of EphA2 receptor (Q03145 26-538 limits assumed): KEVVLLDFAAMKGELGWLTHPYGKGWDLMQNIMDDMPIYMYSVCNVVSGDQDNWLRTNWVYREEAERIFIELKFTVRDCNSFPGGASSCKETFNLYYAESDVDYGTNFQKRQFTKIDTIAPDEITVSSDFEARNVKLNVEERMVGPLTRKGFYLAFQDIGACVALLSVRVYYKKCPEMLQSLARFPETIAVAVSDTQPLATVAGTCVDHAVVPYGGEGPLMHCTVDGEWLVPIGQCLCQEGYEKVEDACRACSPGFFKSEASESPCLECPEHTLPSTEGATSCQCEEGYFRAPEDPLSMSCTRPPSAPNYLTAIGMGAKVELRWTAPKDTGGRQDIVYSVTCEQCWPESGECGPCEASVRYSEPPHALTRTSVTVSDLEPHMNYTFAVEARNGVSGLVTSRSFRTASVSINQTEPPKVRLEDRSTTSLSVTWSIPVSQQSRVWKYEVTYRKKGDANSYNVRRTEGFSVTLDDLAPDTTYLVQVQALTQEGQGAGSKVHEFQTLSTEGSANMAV

For `C[C@H](CCC(=O)NCC(=O)O)[C@H]1CC[C@H]2[C@@H]3CC[C@@H]4C[C@H](O)CC[C@]4(C)[C@H]3CC[C@]12C` [Compound 2, glycolithocholic acid], the reversibility of binding entry on EphA2 receptor (100 μM compound for 1 hour, with or without washing before 50 ng/mL ephrin-A1-Fc) was “reversible binder”. The “nature of the antagonism” value on EphA2 receptor (from Schild plot) is “competitive binding”.

Regarding `CC(=O)CNC(=O)CC[C@@H](C)[C@H]1CC[C@H]2[C@@H]3CC[C@@H]4C[C@H](O)CC[C@]4(C)[C@H]3CC[C@]12C` [Compound 3], at EphA2 receptor, the IC50 was more than 316 µM and the “activity in the binding assay (in words)” value was “inactive”. As for `C[C@H](CCC(=O)N[C@@H](CC(N)=O)C(=O)O)[C@H]1CC[C@H]2[C@@H]3CC[C@@H]4C[C@H](O)CC[C@]4(C)[C@H]3CC[C@]12C` [Compound 10], the half-maximal inhibitory concentration (IC50) against EphA2 receptor was more than 316 µM. Consider `C[C@H](CCC(=O)N[C@H](CC(N)=O)C(=O)O)[C@H]1CC[C@H]2[C@@H]3CC[C@@H]4C[C@H](O)CC[C@]4(C)[C@H]3CC[C@]12C` [Compound 11], for which the concentration for half-maximal inhibition (IC50) against EphA2 receptor is more than 316 µM.

In the case of `C[C@H](CCC(=O)N[C@@H](CC(=O)O)C(=O)O)[C@H]1CC[C@H]2[C@@H]3CC[C@@H]4C[C@H](O)CC[C@]4(C)[C@H]3CC[C@]12C` [Compound 12], at EphA2 receptor, the IC50 was more than 316 µM and the “activity in the binding assay (in words)” value was “inactive”. The corresponding values for `C[C@H](CCC(=O)N[C@H](CC(=O)O)C(=O)O)[C@H]1CC[C@H]2[C@@H]3CC[C@@H]4C[C@H](O)CC[C@]4(C)[C@H]3CC[C@]12C` [Compound 13] are more than 316 µM and “inactive”.

For the compound `C[C@H](CCC(=O)N[C@@H](Cc1c[nH]c2ccccc12)C(=O)O)[C@H]1CC[C@H]2[C@@H]3CC[C@@H]4C[C@H](O)CC[C@]4(C)[C@H]3CC[C@]12C` [Compound 20], in the data set with PC3 cells, the “cytotoxic effect (LDH assay)” value was “nor had cytotoxic effect”.

By IC50 is commonly meant the point on the concentration scale where inhibition reaches its midpoint. Low values mean greater potency in that assay, high ones weaker potency in that assay.
